Structures can show the parent of a compound that is named as a salt. The source made the active and inactive calls. Rule as the data show it, for most assays here: actives have a measured EC50 and inactives only a lower limit.
Columns and labels:
[1] = Luminescence Cell-Based Dose Confirmation HTS to Identify Activators of 5'UTR Stem-Loop Driven Alpha-Synuclein mRNA Translation in H4 Neuroglioblastoma Cells. [Related pubchem assays: 1829 (Project Summary), 1814 (Primary HTS)]; assay type: functional
H4 = test: Luminescence Cell-Based Dose Response HTS to Identify Activators of 5'UTR Stem-Loop Driven Prion Protein mRNA Translation in H4 Neuroglioblastoma Cells. [Related pubchem assays: 1829 (Project Summary), 1814 (Primary HTS)]; assay type: functional; conditions: Homo sapiens
[2] = Luminescence Cell-Based Dose Response HTS to Identify Activators of Luciferase Translation or Activity in H4 […] Cells. [Related pubchem assays: 1829 (Project Summary), 1814 (Primary HTS)]; assay type: functional
Streptokinase A = target: T1, Streptokinase A (Streptococcus pyogenes serotype M1, UniProt P10520); test: viability-normalized secreted streptokinase activity reduction – plasminogen activation absorbance, OD405, dose response (AID 1914); assay type: functional, Streptococcus pyogenes M1 GAS;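 also: secreted streptokinase activity via plasminogen activation per viability signal from cell pellet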
T1 sequence (P10520 whole entry): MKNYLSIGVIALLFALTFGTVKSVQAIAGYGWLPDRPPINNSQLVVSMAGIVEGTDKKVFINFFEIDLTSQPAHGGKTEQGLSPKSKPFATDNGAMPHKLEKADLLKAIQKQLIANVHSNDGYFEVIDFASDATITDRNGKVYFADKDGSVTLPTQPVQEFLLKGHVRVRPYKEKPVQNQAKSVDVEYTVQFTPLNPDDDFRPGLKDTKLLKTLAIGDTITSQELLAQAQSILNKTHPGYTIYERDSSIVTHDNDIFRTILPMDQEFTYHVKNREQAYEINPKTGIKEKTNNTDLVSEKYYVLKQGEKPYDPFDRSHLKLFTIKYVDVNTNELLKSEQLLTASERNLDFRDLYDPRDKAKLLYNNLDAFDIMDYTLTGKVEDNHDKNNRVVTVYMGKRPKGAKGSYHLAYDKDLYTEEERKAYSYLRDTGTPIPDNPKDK

[3] = target: T2, Heat shock factor protein 1 (Mus musculus, UniProt P38532); test: enhancement of HSF1-driven luciferase signal – cell-based, NIH3T3, luminescence, dose retest, confirmation (AID 435004); assay type: functional;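 also: stress induced by proteasome inhibitor MG132 added 30 min after compound; luciferase reporter driven by HSF1 response element in NIH3T3 cells; actives raise luminescence as potentiators of the MG132 stress response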
T2 sequence (P38532 whole entry): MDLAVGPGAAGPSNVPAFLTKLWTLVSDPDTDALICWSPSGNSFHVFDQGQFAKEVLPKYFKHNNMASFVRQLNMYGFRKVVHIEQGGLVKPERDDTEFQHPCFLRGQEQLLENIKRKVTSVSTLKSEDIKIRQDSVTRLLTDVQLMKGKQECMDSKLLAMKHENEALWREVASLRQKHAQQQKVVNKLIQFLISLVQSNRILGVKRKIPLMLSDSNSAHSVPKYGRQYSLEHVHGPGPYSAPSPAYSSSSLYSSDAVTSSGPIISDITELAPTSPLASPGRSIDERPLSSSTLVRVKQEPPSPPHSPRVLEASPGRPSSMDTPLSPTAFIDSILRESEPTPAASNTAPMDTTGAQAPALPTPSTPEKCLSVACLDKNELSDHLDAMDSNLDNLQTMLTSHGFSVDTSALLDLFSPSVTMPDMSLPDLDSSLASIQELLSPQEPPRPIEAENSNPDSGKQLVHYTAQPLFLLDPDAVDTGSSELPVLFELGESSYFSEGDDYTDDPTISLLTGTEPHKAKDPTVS

[4] = target: T3, Corticotropin-releasing factor receptor 2/Corticotropin-releasing factor-binding protein (Homo sapiens, UniProt P24387+Q13324); test: Dose Response confirmation of uHTS hits for small molecule antagonists of the CRF-binding protein and CRF-R2 receptor complex.; assay type: functional; conditions: read-out: IC50_Mean
T3 sequence (Q13324 whole entry): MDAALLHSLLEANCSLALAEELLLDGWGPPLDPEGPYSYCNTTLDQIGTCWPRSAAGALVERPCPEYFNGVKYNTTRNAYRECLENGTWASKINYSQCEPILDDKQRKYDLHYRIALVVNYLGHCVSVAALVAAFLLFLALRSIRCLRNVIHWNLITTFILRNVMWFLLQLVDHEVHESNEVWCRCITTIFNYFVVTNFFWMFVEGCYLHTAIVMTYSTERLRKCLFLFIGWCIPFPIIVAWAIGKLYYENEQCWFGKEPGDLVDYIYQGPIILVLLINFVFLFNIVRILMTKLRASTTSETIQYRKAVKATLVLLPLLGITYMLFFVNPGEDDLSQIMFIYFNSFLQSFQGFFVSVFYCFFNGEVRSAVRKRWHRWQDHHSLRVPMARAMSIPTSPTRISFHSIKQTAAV
T3 sequence (P24387 whole entry): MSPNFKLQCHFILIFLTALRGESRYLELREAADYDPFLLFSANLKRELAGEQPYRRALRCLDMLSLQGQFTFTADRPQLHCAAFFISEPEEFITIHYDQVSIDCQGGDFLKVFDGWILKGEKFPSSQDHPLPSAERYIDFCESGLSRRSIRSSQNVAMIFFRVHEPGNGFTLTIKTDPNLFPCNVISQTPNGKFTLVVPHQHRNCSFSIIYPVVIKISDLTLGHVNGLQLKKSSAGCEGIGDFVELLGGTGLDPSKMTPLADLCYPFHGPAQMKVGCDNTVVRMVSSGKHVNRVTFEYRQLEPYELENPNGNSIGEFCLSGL

[5] = target: T3, Corticotropin-releasing factor receptor 2/Corticotropin-releasing factor-binding protein; test: activators of CRF receptor 2 with binding protein – uHTS hits, confirmation (AID 602473); assay type: functional; conditions: read-out: EC50_Mean
[6] = tested on: Streptococcus sp. 'group A'; test: Streptococcus pyogenes SK(-)GAS viability under kanamycin – luminescence, BacTiterGlo, confirmation, counter-screen for streptokinase expression inhibitor project, dose response (AID 1900); assay type: functional, organism-based
Streptococcus = test: GAS UMAA2166 growth inhibition – luminescence, BacTiterGlo, counter-screen for streptokinase expression inhibitor project, dose response (AID 1915); assay type: functional, organism-based;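 also: potency for reduction of bacterial viability or growth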
[7] = target: T2, Heat shock factor protein 1; test: decrease of HSF1-responsive luciferase luminescence – cell-based, NIH3T3, dose retest, confirmation (AID 2382); assay type: functional;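 also: NIH3T3 fibroblasts with HSF1-driven luciferase reporter stressed by proteasome inhibitor MG132; luminescence from HSF1-driven luciferase expression after 8 hours of MG132 stress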
[8] = Trypanosoma cruzi growth suppression in host cells – NIH3T3 host cells, beta-gal luminescence, confirmation (AID 2044); assay type: functional, cell-based;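 also: intracellular parasites grown in NIH/3T3 mouse fibroblasts as host cells; luminescent beta-galactosidase reporter signal from transgenic T. cruzi replicating inside host cells; inhibitors lower the luminescence signal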
[9] = NIH3T3 cell viability loss – ATP luminescence, mouse fibroblasts, counter-screen, dose response (AID 2010); assay type: functional, cell-based;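 also: cells exposed to compound for about 90 hours before reading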
[10] = Luminescence Cell-Based Dose Retest to Confirm Inhibitors of Cancer Stem Cells. [Related pubchem assays (depositor defined):AID2717, AID2721]; assay type: functional; conditions: Homo sapiens
[11] = alpha-synuclein stem-loop luciferase translation blockers – H4 neuroglioma cells, luminescence, confirmation (AID 1988); assay type: functional, cell-based
[12] = Luminescence Cell-Based Dose Response HTS to Identify Inhibitors of 5'UTR Stem-Loop Driven Prion Protein mRNA Translation in H4 Neuroglioblastoma Cells. [Related pubchem assays: 1827 (Project Summary), 1813 (Primary HTS)]; assay type: functional
[13] = luciferase reporter signal suppression in cells – H4 neuroglioma cells, luminescence, dose response (AID 1990); assay type: functional, cell-based
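For AC50 in this document: cells exposed to compound for roughly 70 hours or longer before luminescence read.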

O=C(CSc1ncnc2ccccc12)c1ccc2c(c1)OCCO2
EC50 [1]: 12.9 µM (active)
EC50 (H4): > 120 µM (not active)
EC50 [2]: 90.6 µM (active)

Cc1nnc(SC(C(=O)Nc2cc(Cl)cc(Cl)c2)c2ccccc2)[nH]c1=O (stereo not given)
EC50 (Streptokinase A): > 150 µM (not active)

CCOC(=O)Cc1cnc(NC(=O)NC(C(=O)OCC)(c2ccccc2)C(F)(F)F)s1 (stereo not given)
EC50 [3]: > 260 µM (inactive)

Cc1nc(-c2ccccc2)nc2[nH]c(=O)n(-c3ccccc3)c(=O)c12
EC50 [1]: 16.6 µM (active)
EC50 (H4): > 120 µM (not active)
EC50 [2]: 8.63 µM (active)

N#Cc1c(N)nc2c(c1N)CC(COc1ccccc1)O2 (stereo not given)
EC50 [1]: 47.2 µM (active)
EC50 (H4): 10.7 µM (active)
EC50 [2]: 20.2 µM (active)

CC(=O)Nc1ccc(Nc2nc3c(S(=O)(=O)c4ccc(C)c(C)c4)nnn3c3ccccc23)cc1
EC50 [3]: 112 µM (active)

Cc1ccc(Cl)cc1N1CCN(C2CCCCC2NS(=O)(=O)c2ccccc2)CC1 (stereo not given)
EC50 [3]: > 260 µM (inactive)

Cc1ccc(NC(=O)c2ccccc2O)cc1
EC50 [3]: 35.5 µM (active)

CCOc1c(C)cc(-c2ncccc2O)cc1C
IC50 [4]: > 47.1 µM (inactive)
EC50 [5]: > 53 µM (inactive)

O=C1N=C(Nc2ccc(Cl)cc2)SC1Cc1cc(Cl)ccc1Cl (stereo not given)
EC50 [6]: 2.64 µM (active)
EC50 (Streptokinase A): > 150 µM (not active)
EC50 (Streptococcus): 7.38 µM (active)

Fc1cccc(CSc2nc3cc[nH]cc-3n2)c1
EC50 [1]: 39.2 µM (active)
EC50 (H4): 19.2 µM (active)
EC50 [2]: 38.2 µM (active)

O=C(c1ccc(N2CCNCC2)cc1)c1cccnc1
IC50 [4]: > 47.1 µM (inactive)
EC50 [5]: > 53 µM (inactive)

O=C(Nc1cc(C(F)(F)F)ccc1-n1cncn1)c1ccc(Cl)cc1
IC50 [4]: > 47.1 µM (inactive)
EC50 [5]: > 53 µM (inactive)

Cc1nc(NC(=O)/C=C/c2ccc(Cl)cc2Cl)sc1C(=O)N(C)C
EC50 [7]: > 195 µM (not active)

CCN(CC)c1ccc([N+](=O)[O-])cc1C(=O)N1CCOCC1
EC50 [3]: > 260 µM (inactive)

Cn1cccc1C(=O)OCC(=O)Nc1ccc2c(c1)CCC2
EC50 [1]: 6.37 µM (active)
EC50 (H4): 47.9 µM (inconclusive)
EC50 [2]: 14.5 µM (active)

COc1ccc(Oc2nccc(-c3ccccc3)c2C#N)cc1
IC50 [4]: 30.7 µM (active)
EC50 (H4): 11.8 µM (active)
EC50 [5]: > 53 µM (inactive)
EC50 [2]: 9.77 µM (active)

CCN(CC)C(=O)CCc1nnc(Cc2cccc(C(F)(F)F)c2)o1
EC50 [1]: 12.5 µM (active)
EC50 (H4): > 120 µM (not active)
EC50 [2]: 14.5 µM (active)

Cc1ccc(C(=O)O/N=C(\N)Cc2ccc([N+](=O)[O-])cc2)c(Cl)c1
EC50 [1]: > 120 µM (not active)
EC50 (H4): 28.6 µM (active)
EC50 [2]: > 120 µM (not active)

Cc1cc(N2CCN(C)CC2)nc2ccc(NC(=O)CCC(=O)NCCCOC(C)C)cc12
IC50 [4]: > 47.1 µM (inactive)
EC50 [5]: > 53 µM (inactive)

c1ccc2c(COn3nnc4ccccc43)cccc2c1
EC50 [1]: 28.7 µM (active)
EC50 (H4): > 120 µM (not active)
EC50 [2]: > 120 µM (not active)

c1ccn2c(SCc3cn4ccsc4n3)nnc2c1
EC50 [1]: 0.408 µM (active)
EC50 (H4): 108 µM (active)
EC50 [2]: 2.4 µM (active)

Cc1ccc(C2C(C#N)=C(N)SC(N)=C2C#N)c(C)c1
EC50 [3]: > 260 µM (inactive)

CCN1CCN(C(=O)c2ccc3c(=O)n(CCc4ccccc4)c(=O)[nH]c3c2)CC1
EC50 [1]: 107 µM (active)
EC50 (H4): 10.2 µM (active)
EC50 [2]: 63.3 µM (active)

CCCn1c(=O)c2ccccc2n2c(SCc3nc4ccccc4s3)nnc12
EC50 [1]: 0.359 µM (active)
EC50 (H4): 5.47 µM (active)
EC50 [2]: 29.2 µM (active)

CC1=CC(C)(C)N=C(Nc2ccc(C)cc2)S1
EC50 [1]: 15.2 µM (active)
EC50 (H4): 24.4 µM (active)
EC50 [2]: 12.6 µM (active)

CCn1c(SCC(=O)Nc2oc(-c3ccccc3)c(-c3ccccc3)c2C#N)nnc1-c1ccco1
EC50 [6]: 10.7 µM (active)
EC50 (Streptokinase A): 58.8 µM (active)
EC50 (Streptococcus): > 150 µM (not active)

COCCCn1c(Cc2csc(Nc3ccc(F)cc3)n2)nnc1SCC(N)=O
EC50 [3]: > 260 µM (inactive)

Cc1ccc(NC(=O)C(OC(=O)c2ccc(NC(N)=O)cc2)c2ccccc2)cc1Cl (stereo not given)
EC50 [6]: 9.28 µM (active)
EC50 (Streptokinase A): > 150 µM (not active)
EC50 (Streptococcus): 9.31 µM (active)

Cc1cc(NC(=O)Cc2ccccc2)ccc1NC(=O)c1cccs1
IC50 [4]: > 47.1 µM (inactive)
EC50 [5]: > 53 µM (inactive)

CCOC(=O)CN1CCC(c2cc(-c3ccc(Cl)cc3)[nH]n2)CC1
EC50 [3]: > 260 µM (inactive)

COc1ccc(NC(=O)CN2CCCC2c2cccs2)cc1S(=O)(=O)N1CCCCC1 (stereo not given)
IC50 [4]: > 47.1 µM (inactive)
EC50 [5]: > 53 µM (inactive)

O=C(NN1C(=O)C2C(C1=O)C1C=CC2C12CC2)c1ccc(Cl)cc1 (stereo not given)
EC50 [3]: > 260 µM (inactive)

COc1ccccc1NS(=O)(=O)c1ccc(N/N=C/c2c(C)nn(-c3ccccc3)c2N2CCCC2)c([N+](=O)[O-])c1
IC50 [4]: > 47.1 µM (inactive)
EC50 [8]: 0.501 µM (active)
EC50 [9]: > 60 µM (not active)
EC50 [5]: > 53 µM (inactive)

Cc1cccc(C)c1OCC(=O)N/N=C/C=C/c1ccco1
EC50 [3]: > 260 µM (inactive)

COc1ccc(CCCC(=O)N/N=C/c2cccc(OC)c2O)cc1C
EC50 [6]: 2.9 µM (active)
EC50 (Streptokinase A): > 150 µM (not active)
AC50 [10]: 0.936 µM (active)
EC50 [11]: 10.6 µM (active)
EC50 [12]: 48.6 µM (active)
EC50 (Streptococcus): 3.61 µM (active)
EC50 [13]: 11.1 µM (active)

Oc1ccc(Br)cc1/C=N/NC(=S)NCCc1ccccc1
EC50 [6]: 1.58 µM (active)
EC50 (Streptokinase A): > 150 µM (not active)
AC50 [10]: 4.29 µM (active)
EC50 (Streptococcus): 6.21 µM (active)

O=C(O)C1=CCCNC1 [GUVACINE HYDROCHLORIDE]
IC50 [4]: > 47.1 µM (inactive)
EC50 [5]: > 53 µM (inactive)

Source: ChEMBL document CHEMBL1201862, “PubChem BioAssay data set” (2004)
